Assay results taken from patent publication US7125564B2, “Water soluble and palatable complexes” (Lavipharm Laboratories, Inc., priority 2001, dated 2006).
In brackets after ≈: the same amount, converted by molar mass. Counter-ions that a name gives are not always drawn. Values belong to the molecule of their own block, whether it stands above or below them.

Experiments:
[1] = Water solubility of active agent with and without glycyrrhizin ammonium (24 h rotation, filtration, HPLC); settings: versus control with zero glycyrrhizin, 0.1 M glycyrrhizin ammonium, distilled water, room temperature
[2] = cited from earlier work
[3] = cited from earlier work; for bioavailability: oral administration
physchem = settings: thermodynamic from solid
[4] = cited from earlier work; remark: listed apart in the source

Molecule: 5-[-2-ethoxy-5-(4-methylpiperazin-1ylsulphonyl)phenyl]-1-methyl -3-n-propyl-1,6-dihydro-7H-pyrazolo[4,3-d]pyrimidine [sildenafil]
increase of solubility through complexation with glycyrrhizin [1]: 200 fold | increase of solubility through complexation with glycyrrhizin ([1]; listed as sildenfil): more than 200 fold

Molecule: CCCc1nn(C)c2c(=O)[nH]c(-c3cc(S(=O)(=O)N4CCN(C)CC4)ccc3OCC)nc12 [Sildenafil citrate]
solubility ([2]; formulated as a regular film tablet): 6 to 8 mg/mL | bioavailability [3]: about 40%

Molecule: O=C1CC2(CCCC2)CC(=O)N1CCCCN1CCN(c2ncccn2)CC1 [buspirone, 8-[4-[4-(2-pyrimidinyl)1-piperazinyl]butyl]-8-azaspiro(4,5)-decane-7,9-dione]
solubility at 24 h (physchem; aqueous with cosolvent or surfactant or cyclodextrin): 44 mg/mL (≈ 114000 µM) | solubility at 24 h (physchem; water): 0.38 mg/mL (≈ 986 µM) | biological half-life ([4]; in man): 2–11 hours | interindividual variation of the maximum plasma concentration ([4]; oral): up to 10 fold

solubility at 24 h (physchem; water): < 1 mg/mL
Molecule: NC(N)=Nc1nc(CSCCC(N)=NS(N)(=O)=O)cs1 [famotidine, N′(aminosulfonyl)-3-[[[2-[(diaminomethylene)amino]-4-thiazolyl]methyl]thio] propanimidamide]
intrinsic water solubility [2]: 0.278 mg/mL | pKa [2]: 6.8 | solubility in ethanol ([2]; ethanol): insoluble | solubility in glacial acetic acid ([2]; glacial acetic acid): freely soluble | solubility in water ([2]; water): very slightly soluble | time to peak plasma concentration ([3]; after oral administration): 1 to 3.5 h | bioavailability [3]: approximately 43% | effect of food on bioavailability ([3]; tablet formulation): unaffected by food

Molecule: CC(C)(C)c1ccc(C(O)CCCN2CCC(C(O)(c3ccccc3)c3ccccc3)CC2)cc1 (stereo not drawn) [terfenadine]
fraction of a tablet given by mouth changed to metabolites ([3]; oral tablet, first-pass effect): 99.5%
